Values of other authors in patent US20260166148A1, “MAGNETOSTRICTIVE PIEZOELECTRIC NANOASSEMBLY AS CANCER CHEMOTHERAPEUTIC” (GRANT DEMARTINO INDUSTRIES LLC, priority 2021, published 2026).

Assays:
[1] = as studied by Jun Yang et al. [18]

SMILES: COc1ccc(C2=[N+]3C(=Nc4c(-c5ccccc5)c(Br)c(-c5ccc(OC)cc5)n4[B-]3(F)F)C(c3ccccc3)=C2Br)cc1 [ADPM06]
- IC50 values in human tumor cells (human tumor cells; when activated (photosensitizer irradiated)): micromolar range
- apoptosis induction, killing the cells (cellular effect) (human tumor cells; when activated, human tumor cells): induces apoptosis

SMILES: CC(C)(N=NC(C)(C)C1=NCCN1)C1=NCCN1.Cl.Cl [AIPH, 2,2′-Azobis(2-(2-imidazolin-2-yl)propane) dihydrochloride]
- water solubility [1]: excellent
